Test results: patent US8968702B2, “Inhibition of HIF-1 activation for anti-tumor and anti-inflammatory responses” (Duke University, priority 2006, dated 2015)
Like-named read-outs stand apart in the source and are kept apart here. Where a SMILES comes first, the peptide text is derived from it. The star is where a group is joined. Cbz = O=C(OCc1ccccc1)*

Columns and labels:
[1] = system: HIF-1α; assay type: cell-based, murine
[2] = system: HIF-1α; assay: Radiation-induced ODD-luc in 4T1 tumors in macrophage-depleted nude mice; assay type: in vivo; conditions: 4T1-ODD-luc tumors, carrageenan 2 mg i.p. repeated, 6 Gy
Procedure: Imaging luciferase activity. Luciferase expression/activity was detected and quantified as relative light units (RLUs) by using the Xenogen IVIS™ imaging system and associated LIVING IMAGE® software (Xenogen, Alameda, Calif., United States of America). […] For in vivo experiments, treated tumor-bearing mice received an i.p. injection of luciferin (150 mg/kg) during isofluorane anesthesia. Repeated images of luciferase expression/activity were acquired following manufacturer's specified procedures.
Animal experiments. Female NIH Swiss nude mice, C57BL/6 mice were purchased from the National Cancer Institute (NCI; Fredrick, Md., United States of America). Mice with a genetic disruption of the inducible nitric acid synthase gene (C57BL/6 iNOS^−/−) were obtained from the Jackson Laboratory (Bar Harbor, Me., United States of America). Female BALB/c mice were obtained from Charles River Laboratories (Raleigh, N.C., United States of America). Animals were maintained and cared for in accordance with the Duke University Institutional Animal Care and Use Committee guidelines. For tumor implantation, 4T1 tumors were grown in nude mice or in syngeneic BALB/c mice, and B16F10 melanoma in syngeneic C57BL/6 or iNOS^−/− mice. […]

[3] = system: constitutively expressed luciferase; assay: CMV-luc control reporter in irradiated 4T1 tumors in nude mice; assay type: in vivo; conditions: 4T1-luc tumors, 6 Gy, with or without L-NAME
Description: Plasmids and cloning procedures. The HIF-1α bioluminescence reporter (ODD-luc) construct was created by fusing PCR product of ODD domain of HIF-1α (GENBANK® Accession No. U59496) to the 5′ end of firefly luciferase reporter gene. Along with this construct, a luciferase expression vector in which luciferase gene was driven by the CMV promoter was used as a control. […] ODD fragments with or without the mutation were cloned into pCMV-3Tag-4B Epitope Tagging Mammalian Expression vector (Stratagene, La Jolla, Calif., United States of America). The full length mouse VHL gene (GENBANK® Accession No. S76748) was cloned form mouse tissue and tagged with HA tag by PCR. All constructs were sequence-verified.
Imaging luciferase activity.
(§1) Animal experiments. […] Drinking water was renewed daily until animal sacrifice.

[4] = system: 4T1 (murine mammary adenocarcinoma); assay: Tumor growth delay with radiotherapy, 4T1 tumors; assay type: in vivo; conditions: syngeneic mice, 3 fractions of 6 Gy every other day, L-NAME in drinking water
Description: as §1
(§2) Statistics. Student's t test, one-way and two-way ANOVA were used where indicated. In growth delay experiments, the numbers of days for tumors to reach 5× their initial volume were used for comparing different treatment groups.

[5] = system: B16F10 (murine melanoma); assay: Tumor growth delay with radiotherapy, B16F10 tumors; assay type: in vivo; conditions: syngeneic C57BL/6 mice, 3 fractions of 6 Gy every other day, L-NAME in drinking water
Description: as §1, §2

[6] = system: tumor vasculature; assay: CD31 vessel staining / vascular density in tumors; assay type: in vivo, mice; conditions: 4T1 and B16F10 tumors excised on day 10
Procedure: Vessel staining was performed on tumor cryoslices by using the VECTASTAIN® ABC and the NOVARED™ kits from Vector Laboratories (Burlingame, Calif., United States of America), according to the manufacturer's protocol. The primary anti-CD31 antibody (Santa Cruz Biotechnology, Santa Cruz, Calif.) was labeled with a secondary biotinylated anti-rabbit antibody (Jackson ImmunoResearch Labs, Inc.). Slices were counterstained using Harris' hematoxilin. Vascular density was determined by counting CD31-positive structures in 5 random fields per tumor.

## CC(C)C[C@@H](C=O)NC(=O)[C@H](CC(C)C)NC(=O)[C@H](CC(C)C)NC(=O)OCc1ccccc1 [MG132] (Cbz-Leu-Leu-Leu-aldehyde)
[1]; CoCl2 240 μM for 12 hrs, MG132 10 μM for 12 hrs, versus background
  luminescence from ODD-luc reporter gene expression: rose significantly

## [Cl-].[Cl-].[Co+2] [CoCl2]
[1]
  luminescence from ODD-luc reporter gene expression: rose significantly

## carrageenan
[2]
  radiation-induced ODD-luc activation after macrophage depletion: significant reduction in radiation-induced ODD-luc activation

## COC(=O)[C@@H](N)CCCNC(=N)N[N+](=O)[O-] [L-NAME, Nω-nitro-L-arginine methyl ester]
[3]
  activity of constitutively expressed luciferase (CMV-luc control): did not influence the activity of constitutively expressed luciferase activity
[4]
  tumor growth delay, L-NAME with radiotherapy: significantly enhanced the therapeutic efficacy of radiotherapy
[5]
  tumor growth delay, L-NAME with radiotherapy: significantly enhanced the therapeutic efficacy of radiotherapy
[6]
  tumor vasculature (CD31+ vascular density), L-NAME with radiotherapy: significantly reduced tumor vasculature

## CC1(C)N([O])C(c2ccc(C(=O)[O-])cc2)=[N+]([O-])C1(C)C.[K+] [carboxy-PTIO, potassium 2-(4-carboxyphenyl)-4,4,5,5-tetramethylimidazoline-1-oxyl-3-oxide]
[1]
  suppression of GSNO-induced HIF-1α activation (ODD-luc): effectively suppressed HIF-1α activation by GSNO
